Assay results: PubChem BioAssay (NCI)
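Following 48 hours of exposure in 96-well plates, responses at five concentrations were used to interpolate endpoints linearly. GI50 = concentration required for 50% inhibition of growth. Definition used: TGI = concentration required for complete inhibition of growth.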

Key:
Experiment in all cases: inhibition of tumour cell growth, NCI panel, 48 h
SNB-19 CNS = system: SNB-19 CNS
CCRF-CEM leukemia = system: CCRF-CEM leukemia
SNB-75 CNS = system: SNB-75 CNS
ACHN renal = system: ACHN renal
NCI/ADR-RES ovarian = system: NCI/ADR-RES ovarian
SK-MEL-28 melanoma = system: SK-MEL-28 melanoma
HCC-2998 colon = system: HCC-2998 colon
SN12C renal = system: SN12C renal
EKVX NSCLC = system: EKVX NSCLC
MDA-MB-231 breast = system: MDA-MB-231 breast

Row | SMILES | GI50 (SNB-19 CNS) [µM] | TGI (SNB-19 CNS) [µM] | GI50 (CCRF-CEM leukemia) [µM] | TGI (CCRF-CEM leukemia) [µM] | GI50 (SNB-75 CNS) [µM] | TGI (SNB-75 CNS) [µM] | GI50 (ACHN renal) [µM] | TGI (ACHN renal) [µM] | GI50 (NCI/ADR-RES ovarian) [µM] | TGI (NCI/ADR-RES ovarian) [µM] | GI50 (SK-MEL-28 melanoma) [µM] | TGI (SK-MEL-28 melanoma) [µM] | GI50 (HCC-2998 colon) [µM] | TGI (HCC-2998 colon) [µM] | GI50 (SN12C renal) [µM] | TGI (SN12C renal) [µM] | TGI (EKVX NSCLC) [µM] | GI50 (MDA-MB-231 breast) [µM] | TGI (MDA-MB-231 breast) [µM] | GI50 (EKVX NSCLC) [µM]
1 | CCCCCCCCCCCCN1C(C)=CS/C1=C\C=C\c1scc(C)[n+]1CCCCCCCCCCCC | 1.91 | 10.3 | 1.98 | > 100 | 1.2 | 4.96 | 1.84 | 10.4 | 3.06 | 34.4 | 2.74 | 17.3 | 2.11 | 11 | 1.65 | 4.2 | – | – | – | –
2 | Cc1ccc(C)c(NC(=O)C(=O)C(c2cnc3ccc([N+](=O)[O-])cc3n2)[N+](=O)[O-])c1 (stereo unspecified) | – | > 100 | – | 79.1 | – | > 100 | – | > 100 | – | 63.8 | – | > 100 | – | > 100 | – | > 100 | > 100 | – | – | –
3 | C/C(=N\NC(=S)N1CCCCCC1)c1nccnc1C | – | – | – | – | – | 21.9 | – | 3.24 | – | – | – | > 100 | – | > 100 | – | > 100 | – | – | – | –
4 | CC(C)C[C@H](NC(=O)[C@H](Cc1ccccc1)n1ccc(N2CCCCC2)cc1=O)B(O)O | 0.956 | > 100 | 0.429 | > 100 | 0.461 | 3.82 | 0.406 | > 100 | 17.4 | > 100 | 0.521 | 29.7 | 1.14 | 3.09 | 1.5 | 11.1 | – | 1.2 | 12.2 | –
5 | O=C(Nc1ccc(-c2nc3cc4ccccc4cc3[nH]2)cc1)c1cccc(Br)c1 | 39.2 | > 100 | 9.55 | 80.4 | 12.4 | 26.4 | 12.3 | 31 | 15.3 | 58.6 | 4.33 | 16.8 | 31.1 | > 100 | 8.67 | 34.9 | – | 3.11 | 19.3 | –
6 | O=C(O)c1ccc(NC(=O)C2C(=O)C(=O)N(c3ccc(C(=O)O)cc3)C2=O)cc1 (stereo unspecified) | – | > 100 | – | > 100 | – | > 100 | – | > 100 | – | – | – | > 100 | – | > 100 | – | > 100 | > 100 | – | – | –
7 | Cc1ccc(S(=O)(=O)N/N=C(\CCN2CCCC2)CC(c2ccccc2)c2c(O)c3ccccc3oc2=O)cc1 (stereo unspecified) | – | > 100 | – | > 100 | – | > 100 | – | > 100 | – | – | – | – | – | – | – | > 100 | > 100 | – | – | –
8 | O=[N+]([O-])c1cnc(Sc2ccncn2)c([N+](=O)[O-])c1 | 32.8 | > 100 | 1.21 | 4.47 | 14.4 | 27.7 | 1.77 | 3.27 | 16.6 | 33.7 | 15.6 | 29.7 | 18.4 | 36.2 | 16 | 29.9 | – | 14.8 | 28.4 | –
9 | CC(=O)N(C)OC(=O)CC(=O)c1ccccc1 | – | > 100 | – | > 100 | – | > 100 | – | > 100 | – | – | – | > 100 | – | > 100 | – | > 100 | – | – | – | –
10 | O=P(c1ccccc1)(c1ccccc1)C1CC=C(c2ccccc2)C2(CCCC2)C1 (stereo unspecified) | – | > 100 | – | > 100 | – | > 100 | – | – | – | – | – | > 100 | – | – | – | > 100 | > 100 | – | – | –
11 | CCCCCCCCCCCCCS(=O)(=O)O | – | > 100 | – | > 100 | – | > 100 | – | > 100 | – | – | – | > 100 | – | > 100 | – | > 100 | > 100 | – | – | –
12 | CC(Cn1c2c3ccccc3ccc2c2oc(=O)c3ccccc3c21)N(C)C (stereo unspecified) | – | > 100 | – | > 100 | – | > 100 | – | > 100 | – | – | – | > 100 | – | – | – | – | > 100 | – | – | –
13 | O=C(Nc1ccc(Cl)c(C(F)(F)F)c1)C(=O)C(C(=O)/C=C/c1ccccc1)C1OC(=O)c2ccccc21 (stereo unspecified) | – | > 100 | – | > 100 | – | > 100 | – | > 100 | – | – | – | – | – | > 100 | – | > 100 | > 100 | – | – | –
14 | C/C(CN1C(=O)c2ccccc2C1=O)=N\NS(=O)(=O)c1cccc([N+](=O)[O-])c1 | – | > 100 | – | > 100 | – | > 100 | – | > 100 | – | – | – | > 100 | – | > 100 | – | > 100 | > 100 | – | – | –
15 | O=C1C2C(C(=O)N1O)N(Cc1ccccc1)C(=O)N2Cc1ccccc1 (stereo unspecified) | – | > 100 | – | > 100 | – | > 100 | – | > 100 | – | – | – | > 100 | – | > 100 | – | > 100 | > 100 | – | – | –
16 | CC(C)C(C(=O)O)N(CC1(O)OCC(O)C(O)C1O)N=O (stereo unspecified) | – | – | – | > 100 | – | > 100 | – | > 100 | – | – | – | > 100 | – | > 100 | – | – | > 100 | – | – | –
17 | CCNc1nnc(CSc2nc(-c3ccccc3)c(-c3ccccc3)[nH]2)s1 | – | 34 | – | 40.3 | – | 82.6 | – | 74.6 | – | – | – | 36.1 | – | – | – | 56.5 | 44.4 | – | – | –
18 | Nc1ccccc1C#CC#Cc1ccccc1N | > 100 | > 100 | – | – | 32.3 | > 100 | 10.6 | 22.9 | 4.63 | 29.7 | 48 | > 100 | – | – | 14.7 | 31.4 | – | 10.9 | 24.5 | –
19 | Cc1ccc(NC(=O)c2[nH]c(=S)nc(N)c2-c2ccccc2C)cc1C | – | > 100 | – | > 100 | – | > 100 | – | > 100 | – | – | – | > 100 | – | – | – | > 100 | > 100 | – | – | –
20 | CN/N=C(/Cc1occc(=O)c1O)C(=O)Nc1ccc(C)c(C)c1 | – | > 100 | – | > 100 | – | – | – | > 100 | – | – | – | > 100 | – | > 100 | – | > 100 | > 100 | – | – | –
21 | CC(=O)N1CCC2(C=Nc3ccccc32)CC1 | – | – | – | > 100 | – | > 100 | – | > 100 | – | – | – | > 100 | – | > 100 | – | – | > 100 | – | – | –
22 | CN(C)/[N+]([O-])=N/Oc1cc(Nc2cccc(C(=O)O)c2)c([N+](=O)[O-])cc1[N+](=O)[O-] | 53.6 | > 100 | – | – | > 100 | > 100 | > 100 | > 100 | > 100 | > 100 | > 100 | > 100 | – | – | > 100 | > 100 | > 100 | > 100 | > 100 | > 100
